One test deals with T1, GID1 (Oryza sativa, UniProt Q6L545).
T1 construct: yeast two-hybrid fusions: GID1 bait in pGBKT7, SLR1 prey in pGADT7; with DELLA protein SLR1
T1 sequence (Q6L545 1-354): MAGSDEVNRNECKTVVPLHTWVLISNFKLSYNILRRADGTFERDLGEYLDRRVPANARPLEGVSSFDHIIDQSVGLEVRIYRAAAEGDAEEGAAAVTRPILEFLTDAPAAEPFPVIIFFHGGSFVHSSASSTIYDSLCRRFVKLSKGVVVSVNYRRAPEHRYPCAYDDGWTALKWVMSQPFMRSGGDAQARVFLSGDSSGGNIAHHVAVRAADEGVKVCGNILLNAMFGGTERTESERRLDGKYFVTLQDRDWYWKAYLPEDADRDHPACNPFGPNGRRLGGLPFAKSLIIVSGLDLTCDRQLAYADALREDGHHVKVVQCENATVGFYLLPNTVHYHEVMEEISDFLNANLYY
T1 sequence (Q7G7J6 1-625 partner): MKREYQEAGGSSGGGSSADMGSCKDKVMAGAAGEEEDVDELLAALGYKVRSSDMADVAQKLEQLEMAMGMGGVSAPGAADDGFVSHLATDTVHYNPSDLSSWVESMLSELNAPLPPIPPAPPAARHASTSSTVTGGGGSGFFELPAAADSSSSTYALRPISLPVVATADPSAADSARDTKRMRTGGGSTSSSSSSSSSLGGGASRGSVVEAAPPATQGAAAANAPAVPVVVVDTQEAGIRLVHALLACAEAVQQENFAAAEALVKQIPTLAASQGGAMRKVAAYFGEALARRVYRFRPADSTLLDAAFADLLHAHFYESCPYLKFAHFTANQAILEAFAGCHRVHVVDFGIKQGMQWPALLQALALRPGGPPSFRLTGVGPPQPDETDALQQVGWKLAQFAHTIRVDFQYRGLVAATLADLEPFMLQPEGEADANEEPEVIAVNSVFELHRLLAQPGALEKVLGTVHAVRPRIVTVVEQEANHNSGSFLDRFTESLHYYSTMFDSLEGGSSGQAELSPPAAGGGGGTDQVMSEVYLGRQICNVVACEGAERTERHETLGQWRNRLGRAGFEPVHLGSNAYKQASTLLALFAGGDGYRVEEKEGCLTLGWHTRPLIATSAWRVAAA
As to the kind of experiment: yeast two-hybrid GID1-SLR1 interaction (-His growth). It is filed as cell-based. The conditions noted are these: GA-dependent interaction with SLR1; GA 1e-10 to 1e-5 M.

The target in test [1] is T2, OsGA3ox1 (Oryza sativa, UniProt Q6AT12).
T2 construct: gene GA3OX1
T2 sequence (Q6AT12 whole entry): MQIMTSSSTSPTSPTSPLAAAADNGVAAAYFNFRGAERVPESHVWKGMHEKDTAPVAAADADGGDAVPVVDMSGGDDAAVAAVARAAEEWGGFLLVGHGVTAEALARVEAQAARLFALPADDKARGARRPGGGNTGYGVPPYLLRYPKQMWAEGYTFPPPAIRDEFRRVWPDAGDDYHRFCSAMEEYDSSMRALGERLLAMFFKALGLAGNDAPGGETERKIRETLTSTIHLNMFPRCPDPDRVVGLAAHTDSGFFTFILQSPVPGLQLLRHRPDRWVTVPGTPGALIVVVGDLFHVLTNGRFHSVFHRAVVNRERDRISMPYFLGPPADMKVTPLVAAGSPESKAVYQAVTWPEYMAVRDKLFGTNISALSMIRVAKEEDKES
As to the kind of experiment: in vitro 3-oxidation, gas chromatography of products. It is filed as biochemical. The conditions noted are these: products GA4 and GA7.

Test [2] addresses T3, OsGA3ox1 (Oryza sativa, UniProt Q6AT12, F235Y).
T3 construct: gene GA3OX1
T3 sequence (Q6AT12 1-384 F235Y): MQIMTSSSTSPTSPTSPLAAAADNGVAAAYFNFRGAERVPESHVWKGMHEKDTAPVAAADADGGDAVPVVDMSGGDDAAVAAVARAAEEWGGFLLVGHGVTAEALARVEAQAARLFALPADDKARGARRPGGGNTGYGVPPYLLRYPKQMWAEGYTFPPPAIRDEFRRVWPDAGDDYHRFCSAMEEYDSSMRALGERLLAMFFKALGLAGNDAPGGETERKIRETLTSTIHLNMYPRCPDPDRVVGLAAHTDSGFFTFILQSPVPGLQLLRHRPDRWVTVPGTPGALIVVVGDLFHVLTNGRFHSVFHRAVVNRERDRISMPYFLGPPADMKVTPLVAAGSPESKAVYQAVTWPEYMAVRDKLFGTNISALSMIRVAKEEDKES
The description is as above. In kind it is biochemical. The conditions noted are these: products GA4 and GA7.

In another test the target is T4, OsGA3ox2 (Oryza sativa, UniProt Q9FU53).
T4 construct: gene GA3OX2; crystallised without Fe(II)
T4 sequence (Q9FU53 whole entry): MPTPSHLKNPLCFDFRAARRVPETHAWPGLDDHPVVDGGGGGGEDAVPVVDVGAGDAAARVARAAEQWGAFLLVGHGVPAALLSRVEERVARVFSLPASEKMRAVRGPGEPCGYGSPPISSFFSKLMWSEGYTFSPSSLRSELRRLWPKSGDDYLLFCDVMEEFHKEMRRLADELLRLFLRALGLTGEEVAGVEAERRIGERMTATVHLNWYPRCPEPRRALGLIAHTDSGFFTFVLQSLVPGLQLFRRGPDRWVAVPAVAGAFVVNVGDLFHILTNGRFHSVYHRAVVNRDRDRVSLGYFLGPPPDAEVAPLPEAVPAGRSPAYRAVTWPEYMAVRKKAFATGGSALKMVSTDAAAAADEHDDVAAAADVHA
As to the kind of experiment: X-ray crystallography, […] A. It is filed as binding. The conditions noted are these: Fe(II) omitted, active site.

With `C=C1C[C@]23C[C@H]1CC[C@H]2[C@@]12C=C[C@H](O)[C@@](C)(C(=O)O1)[C@H]2[C@@H]3C(=O)O` [GA7], at GID1, the “yeast two-hybrid GID1-SLR1 interaction (-His growth)” value is “GA7 showed the highest efficiency among all GA ligands, followed by GA4”. Regarding `C=C1C[C@]23C[C@H]1CC[C@H]2[C@@]12CCC[C@@](C)(C(=O)O1)[C@H]2[C@@H]3C(=O)O` [GA9], the “in vitro 3-oxidation, gas chromatography of products” value was “GA biosynthesis activities of recombinant OsGA3ox1 and OsGA3ox2 for GA9 as a substrate” on OsGA3ox1 [1]; “The productivity of GA7 was lower in F235Y-OsGA3ox1 than that in OsGA3ox1” on OsGA3ox1 [2]. Moreover, on OsGA3ox2 (complex with 2-oxoglutarate, 0.5 mM GA9, pH 7.0), the “X-ray crystallography, 1.9 A” value is “structure of the OsGA3ox2 complex with (co-) substrates; GA9 and 2-oxoglutarate (2OG)”. With `C=C1C[C@]23C[C@H]1CC[C@H]2[C@@]12CC[C@H](O)[C@@](C)(C(=O)O1)[C@H]2[C@@H]3C(=O)O` [GA4], on GID1, the “yeast two-hybrid GID1-SLR1 interaction (-His growth)” value is reported as “GA7 showed the highest efficiency among all GA ligands, followed by GA4”.

Regarding `O=C(O)CCC(=O)C(=O)O` [2-oxoglutarate], on OsGA3ox2 (complex with GA9, 10 mM 2-oxoglutarate, pH 7.0), the “X-ray crystallography, 1.9 A” value is “structure of the OsGA3ox2 complex with (co-) substrates; GA9 and 2-oxoglutarate (2OG)”.

The record behind these values is publication PMC8770518, “Evolutionary alterations in gene expression and enzymatic activities of gibberellin 3-oxidase 1 in Oryza” (Communications Biology, 2022).
